Measurements: patent US8067039B2, “Extract of plant Dendrobii caulis and preparing process thereof” (National Yang-Ming University, priority 2003, dated 2011)

System: RPE cell
Assay: Proteolytic activity of cultured RPE cell extracts on AGE-BSA (electrophoresis, ImageQuant)
Assay type: cell-based, bovine
Settings: 50 ng/ml HGF
Procedure: 1×10^6 RPE cells are seeded into the 96-well microplate, containing 10% FCS in DMEM, at 37° C., supplied with 5% CO2. After incubation of 48 hrs, five sets of experiment are treated with the Dendrobii Caulis crude extract, in which each set of experiment includes two microplates for different treating time. After treating for 36 or 48 hrs, 0.01% EDTA is added into the microplate for harvesting the cells, and then the cells are suspended in the […]. Then, the cell solution is centrifuged for 5 min at 1200 rpm, and the cells are suspended back into 10 ml DEME twice. Then, the cell solution is centrifuged again, and is suspended back again with the 0.7 ml Homogenization buffer (50 mM sodium acetate buffer, pH4.5, 1 mM DTT, 0.15M NaCl, 3 mM NaN3) containing 0.1% TritonX-100. Then, the cell solution is vibrated by a sonicator for 15 sec, four cycles, for breaking the cell completely. […] The protein concentration is detected. […]
1×10^6 RPE cells are seeded into the 96-well microplate, containing 10% FCS in DMEM, at 37° C., supplied with 5% CO2. […] After treating for 36 or 48 hrs, 0.01% EDTA is added into the microplate for harvesting the cells, and then the cells are suspended in the DMEM and the cell number is counted. […]

“HGF: hepatocyte growth factor, used at 50 ng/ml as comparison treatment” was tested, and the “proteolytic activity of cultured RPE cell vs control set” value (48 hours, FIG. 32) was “a little bit greater” and the “amount of AGE-BSA” value (FIG. 33) was “obviously decreased”.
